The target of data set [1] is ATP-binding cassette sub-family C member 2 (Homo sapiens, UniProt Q92887). Description: TP_TRANSPORTER: inhibition of Vinblastine transepithelial transport (basal to apical)(Vinblastine: 0.035 uM, Sulfinpyrazone: 1000 uM) in MRP2-expressing MDCKII cells. It counts as functional, cell-based. Conditions: dog, mdck-ii.
The target of data set [2] is Multidrug resistance-associated protein 1 (Homo sapiens, UniProt P33527). Description: TP_TRANSPORTER: transepithelial transport (basal to apical) in MRP1-expressing LLC-PK1cell. It counts as functional, cell-based. The settings on record: pig, llc-pk1.
Sequence of Multidrug resistance-associated protein 1 (P33527 whole entry): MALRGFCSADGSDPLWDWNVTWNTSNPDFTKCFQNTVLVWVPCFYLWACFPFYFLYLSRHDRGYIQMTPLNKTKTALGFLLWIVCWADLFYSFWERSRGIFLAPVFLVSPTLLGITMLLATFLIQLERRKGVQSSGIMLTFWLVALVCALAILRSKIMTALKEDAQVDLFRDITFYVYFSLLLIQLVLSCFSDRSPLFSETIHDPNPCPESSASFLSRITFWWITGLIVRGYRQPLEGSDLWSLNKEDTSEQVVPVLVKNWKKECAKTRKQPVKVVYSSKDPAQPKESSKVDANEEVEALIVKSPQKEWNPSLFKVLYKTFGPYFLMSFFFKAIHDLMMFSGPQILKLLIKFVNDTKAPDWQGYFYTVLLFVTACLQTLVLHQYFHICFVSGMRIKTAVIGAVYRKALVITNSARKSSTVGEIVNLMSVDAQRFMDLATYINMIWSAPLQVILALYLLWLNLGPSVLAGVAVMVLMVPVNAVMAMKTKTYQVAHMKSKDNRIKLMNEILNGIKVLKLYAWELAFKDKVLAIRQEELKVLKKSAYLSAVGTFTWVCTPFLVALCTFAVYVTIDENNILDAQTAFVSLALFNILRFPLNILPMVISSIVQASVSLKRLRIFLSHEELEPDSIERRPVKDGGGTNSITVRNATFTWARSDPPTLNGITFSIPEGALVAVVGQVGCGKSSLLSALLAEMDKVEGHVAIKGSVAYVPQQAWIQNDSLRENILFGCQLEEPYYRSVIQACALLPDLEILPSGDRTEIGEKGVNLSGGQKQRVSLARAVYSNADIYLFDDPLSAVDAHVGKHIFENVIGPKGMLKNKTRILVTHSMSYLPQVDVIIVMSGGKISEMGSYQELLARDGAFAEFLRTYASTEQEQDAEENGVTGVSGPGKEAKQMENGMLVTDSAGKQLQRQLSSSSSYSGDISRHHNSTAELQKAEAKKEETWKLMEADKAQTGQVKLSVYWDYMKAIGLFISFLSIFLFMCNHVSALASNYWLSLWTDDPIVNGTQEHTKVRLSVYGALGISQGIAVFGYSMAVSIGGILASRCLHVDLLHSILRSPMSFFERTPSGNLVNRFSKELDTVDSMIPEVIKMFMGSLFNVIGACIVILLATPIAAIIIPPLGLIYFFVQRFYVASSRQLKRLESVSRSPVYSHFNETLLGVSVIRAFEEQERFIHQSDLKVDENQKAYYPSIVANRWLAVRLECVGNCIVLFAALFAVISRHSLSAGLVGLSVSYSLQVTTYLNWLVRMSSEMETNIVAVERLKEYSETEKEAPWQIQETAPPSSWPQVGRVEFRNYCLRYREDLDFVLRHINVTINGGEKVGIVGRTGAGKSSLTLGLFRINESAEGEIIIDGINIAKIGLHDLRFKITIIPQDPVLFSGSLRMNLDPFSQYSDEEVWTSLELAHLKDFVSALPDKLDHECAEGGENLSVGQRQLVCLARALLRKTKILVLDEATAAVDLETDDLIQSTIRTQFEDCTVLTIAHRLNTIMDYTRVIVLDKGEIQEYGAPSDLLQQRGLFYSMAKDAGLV

Sequence of ATP-binding cassette sub-family C member 2 (Q92887 whole entry): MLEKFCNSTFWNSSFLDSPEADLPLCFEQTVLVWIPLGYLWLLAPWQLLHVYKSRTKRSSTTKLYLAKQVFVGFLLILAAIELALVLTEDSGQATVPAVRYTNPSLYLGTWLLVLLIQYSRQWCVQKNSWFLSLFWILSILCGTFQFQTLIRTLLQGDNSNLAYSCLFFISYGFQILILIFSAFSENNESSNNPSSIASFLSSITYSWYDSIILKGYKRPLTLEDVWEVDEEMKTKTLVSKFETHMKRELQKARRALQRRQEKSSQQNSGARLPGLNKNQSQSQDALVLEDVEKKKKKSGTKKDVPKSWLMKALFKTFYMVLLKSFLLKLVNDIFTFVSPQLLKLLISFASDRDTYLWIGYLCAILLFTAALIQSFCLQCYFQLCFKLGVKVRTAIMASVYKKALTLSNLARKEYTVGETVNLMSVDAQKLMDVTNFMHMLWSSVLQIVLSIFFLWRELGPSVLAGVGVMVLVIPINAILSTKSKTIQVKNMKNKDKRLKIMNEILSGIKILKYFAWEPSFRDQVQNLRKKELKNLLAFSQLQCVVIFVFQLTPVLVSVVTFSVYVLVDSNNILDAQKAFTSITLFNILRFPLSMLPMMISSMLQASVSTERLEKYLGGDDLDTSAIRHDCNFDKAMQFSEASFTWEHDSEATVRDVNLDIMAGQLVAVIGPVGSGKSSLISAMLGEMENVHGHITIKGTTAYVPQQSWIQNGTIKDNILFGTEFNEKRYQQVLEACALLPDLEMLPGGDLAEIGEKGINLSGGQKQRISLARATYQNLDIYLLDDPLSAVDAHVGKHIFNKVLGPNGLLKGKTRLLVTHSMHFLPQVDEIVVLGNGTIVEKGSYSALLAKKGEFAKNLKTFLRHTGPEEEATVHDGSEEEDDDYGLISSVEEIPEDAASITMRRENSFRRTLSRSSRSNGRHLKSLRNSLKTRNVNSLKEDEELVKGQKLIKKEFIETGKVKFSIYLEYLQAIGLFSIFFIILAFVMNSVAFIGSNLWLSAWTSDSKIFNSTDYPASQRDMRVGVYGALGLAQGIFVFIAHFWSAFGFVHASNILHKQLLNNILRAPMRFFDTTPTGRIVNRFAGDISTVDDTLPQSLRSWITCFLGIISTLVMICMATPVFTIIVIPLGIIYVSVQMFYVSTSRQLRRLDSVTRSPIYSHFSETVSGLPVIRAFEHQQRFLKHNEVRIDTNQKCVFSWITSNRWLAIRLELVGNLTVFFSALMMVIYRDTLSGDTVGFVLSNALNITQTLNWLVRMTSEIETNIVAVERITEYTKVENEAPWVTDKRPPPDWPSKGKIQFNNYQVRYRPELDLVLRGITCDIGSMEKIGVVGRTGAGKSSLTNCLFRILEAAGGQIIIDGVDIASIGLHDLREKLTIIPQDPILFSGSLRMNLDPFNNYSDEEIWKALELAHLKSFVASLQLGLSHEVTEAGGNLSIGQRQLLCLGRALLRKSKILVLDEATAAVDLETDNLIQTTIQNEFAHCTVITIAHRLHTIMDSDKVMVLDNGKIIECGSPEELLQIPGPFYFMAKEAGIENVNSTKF

As to `O=C1C(CC[S+]([O-])c2ccccc2)C(=O)N(c2ccccc2)N1c1ccccc1` (configuration not stated) [SULFINPYRAZONE], the Activity entry in data set [1] was “inhibitor [+]”.
For the compound `CC[C@]1(O)C[C@@H]2CN(CCc3c([nH]c4ccccc34)[C@@](C(=O)OC)(c3cc4c(cc3OC)N(C)[C@H]3[C@@](O)(C(=O)OC)[C@H](OC(C)=O)[C@]5(CC)C=CCN6CC[C@]43[C@@H]65)C2)C1` [VINBLASTINE], the Activity entry in data set [2] is “substrate [+]”.

(Values after ChEMBL document CHEMBL2074011, “Comparison of furosemide and vinblastine secretion from cell lines overexpressing multidrug resistance protein (P-glycoprotein) and multidrug resistance-associated proteins (MRP1 and MRP2)” (Pharmacology, 2002).)
